Measured values taken from US20100112089A1, “PEPTIDE COMPOUND AND USE THEREOF” (Takeda Pharmaceutical Company Limited, priority 2008, published 2010).

Columns and labels:
[1] = test system: NCI-H226 subcutaneous xenograft tumor; test: Subcutaneous tumor xenograft model; type: in vivo, SCID mice; details: cisplatin 9 mg/kg
Experimental: A suspension of NCI-H226 cells was injected subcutaneously into the flanks of six weeks old male severe […] combined immune deficiency (SCID) mice (Charles River Lab., Wilmington, Mass.). The size of tumors was measured three times a week using a caliper. The volumes were calculated using the following formula: volume (cm^3)=[width^2 (mm)×length (mm)]/2000. The relative tumor volume was expressed as the Vt/V0 index, where Vt is the tumor volume on a measured day, and V0 is the volume of the same tumor just before the first treatment. Mean relative tumor sizes with standard error of mean, SEM, were plotted. Body weight was measured three times weekly from the first treatment, and the weight change was expressed as a percentage of the initial weight. Animals were housed in accordance with guidelines from the Association for the Assessment and Accreditation of Laboratory Animal Care International, and the protocols were approved by the institutional animal care committee of CanBas Co., Ltd.
The statistical significance of the differences of the relative tumor volume between groups was determined by Student's t tests.

[2] = test system: NCI-H226 cells; type: cell-based; details: bleomycin 2 μg/ml alone
Experimental: The cells were harvested and lysed in a lysis buffer [50 mM Tris-HCl (pH 8.0), 5 mM EDTA (pH 8.0), 100 mM NaCl, 0.5% NP-40, 2 mM DTT, 50 mM NaF, 1 mM Na3VO4, 1 μM microcystin, proteinase inhibitors cocktail (Roche, Mannheim, Germany)] for 30 min on ice and the lysates were clarified by centrifugation at 15,000 rpm for 20 min at 4° C. Protein concentration of the supernatants was evaluated using a detergent-compatible protein assay kit (Bio-Rad, Hercules, Calif.) according to the manufacturer's instructions. Whole cell lysates (60 μg) were run on a 10-12% SDS-PAGE gel, and transferred onto polyvinylidene difluoride (PVDF) membranes (Bio-Rad). The membrane was blocked at room temperature for 1 hr in TBST (0.1% Tween 20 in TBS) containing 2% ECL Advance Blocking Reagent (GE healthcare, Waukesha, Wis.) and incubated with primary antibody overnight at 4° C. The membrane was incubated with anti-peroxidase conjugated secondary antibody (Cell Signaling) for 1 hr at room temperature and analyzed using the enhanced chemiluminescence detection system (ECL Advance Western Blotting Detection Kit, GE healthcare).

[3] = test system: NCI-H226 cells; test: Confocal immunofluorescence analysis of damage foci; type: cell-based; details: bleomycin at 0.4 μg/ml alone
Experimental: The cells were fixed in ice-cold methanol at −20° C. for 20 min, and blocked with PBS containing 5% BSA for 45 min. Cells were then incubated with anti-γ-H2AX, anti-ATM p-Ser1981, anti-DNA-PKcs p-Thr2609, anti-NBS1 p-Ser343, or anti-SMC1 p-Ser957 antibodies overnight at 4° C., followed by incubation with Alexa 594-conjugated secondary antibody (Invitrogen, Carlsbad, Calif.) for 1 hr at room temperature in the dark. Cell nuclei were stained using Hoechst 33342. Fluorescence was visualized and analyzed using Becton Dickinson Pathway450. The intensity of the nuclei and number of foci was assessed by ATTOVision and IPLab software (Becton Dickinson), respectively.

| Compound | tumor growth [1] | phosphorylation of ATM (Ser1981), H2AX, CHK1 (Ser317), CHK2 (Thr68) [2] | foci formation (γ-H2AX, NBS1 p-Ser343, ATM p-Ser1981, SMC1 p-Ser957) [3] |
| --- | --- | --- | --- |
| N.N.[Cl][Pt][Cl] [cisplatin] | suppressed tumor growth |  |  |
| bleomycin |  | induced phosphorylation | only marginally increased foci formation |
